Test results: US20190015423A1, “REGULATION OF GENE EXPRESSION BY MODULATING PRIMARY CILIA LENGTH” (THE TRUSTEES OF COLUMBIA UNIVERSITY IN THE CITY OF NEW YORK, priority 2016, published 2019)
“Also recorded” adds a separate entry of the source. Counter-ions that a name gives are not always drawn.

test system: MLO-Y4 osteocytes; test: Oscillatory fluid flow-induced mRNA expression (COX-2, OPN, AC6), flow vs no flow; assay type: cell-based; settings: AC6 siRNA; mechanically stimulated cells

For “AC6 siRNA: siRNA 5′-CCTGCCACCTACAACAGCTCAATTA-3′ (SEQ ID NO:2) (listed as DNA, chemistry not given here)”, the “decrease of AC6 expression” value was 50%±3%.

For “AC6 siRNA: siRNA 5′-CCTGCCACCTACAACAGCTCAATTA-3′ (SEQ ID NO:2) (listed as DNA, chemistry not given here)”, the “decrease of flow-induced OPN expression” value was 30%±3%.

same assay, conditions: IFT88 siRNA; flow 1 h

“IFT88 siRNA: siRNA 5′-CCAGAAACAGATGAGGACGACCTTT-3′ (SEQ ID NO:1) (listed as DNA, chemistry not given here)” was tested, and the “decrease of flow-induced OPN mRNA expression compared to scramble control” value was 43%±2%.

test system: MLO-Y4 osteocytes; test: Primary cilia length and incidence by immunocytochemistry (acetylated α-tubulin); assay type: cell-based; settings: 20 μM IFT88 siRNA, 48 hours
Method: MLO-Y4 osteocytes were cultured on collagen-coated dishes in MEMα (Life Tech) supplemented with 5% fetal bovine serum, 5% calf serum, and 1% penicillin/streptomycin at 37° C. and 5% CO2. […] These agents, or their vehicle control, were applied to cells for 16 h prior to experimentation. MTT, (methylthiazolyldiphenyl-tetrazolium bromide) assay (Sigma) was performed according to manufacturer's protocol to assess cell viability during drug treatments. Phase contrast microscopy with an Olympus CKX41 inverted microscope and 40× objective was used to assess cell morphology.
For primary cilia imaging and analysis, cells cultured on collagen I-coated glass were fixed in 10% formalin and treated with anti-acetylated α-tubulin primary antibody, 1:1, from a C3B9 hybridoma cell line (Sigma). Cilia were visualised with Alexa-Fluor 488 secondary antibody, 1:1000 (Life Technologies) and imaged with a 100× oil objective on an Olympus Fluoview FV1000 confocal microscope. Nuclei were stained with DAPI (Life Technologies). Cilia length was analyzed using Image J software.
Gene silencing was performed by siRNA mediated knockdown and compared to scramble siRNA control (Life Technologies). […]

For “IFT88 siRNA: siRNA 5′-CCAGAAACAGATGAGGACGACCTTT-3′ (SEQ ID NO:1) (listed as DNA, chemistry not given here)”, the “primary cilia incidence compared to scramble control” value was “lower incidence; also recorded: decreases”.

With “IFT88 siRNA: siRNA 5′-CCAGAAACAGATGAGGACGACCTTT-3′ (SEQ ID NO:1) (listed as DNA, chemistry not given here)” the “primary cilia length compared to scramble control” value was “significantly shorter; also recorded: decreased”.

same assay, conditions: AC6 siRNA

With “AC6 siRNA: siRNA 5′-CCTGCCACCTACAACAGCTCAATTA-3′ (SEQ ID NO:2) (listed as DNA, chemistry not given here)” the cilia incidence was “no effect; also recorded: Neither AC6 siRNA nor fenoldopam alter cilia incidence”.

For “AC6 siRNA: siRNA 5′-CCTGCCACCTACAACAGCTCAATTA-3′ (SEQ ID NO:2) (listed as DNA, chemistry not given here)”, the “decrease in cilia length” value was 10%±3%.

test system: MLO-Y4 osteocytes; test: High-throughput drug screening of primary cilia length and incidence; assay type: cell-based; settings: 10 μM, 16 hours, triplicate; normalized to vehicle control; standard deviation away from the population average
In short: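 MLO-Y4 osteocytes on collagen I, treated 16 h with 10 μM compound in triplicate, fixed, stained for acetylated α-tubulin and Hoechst, imaged at 40× (4 fields/well); cilia length and incidence normalized to plate DMSO controls. Hits ranked by SD from population mean, requiring ≥40% viability by nuclei count.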

In order of falling “Average Incidence SD Away” value:
1. COC(=O)C1=CO[C@@H](O[C@@H]2O[C@H](CO)[C@@H](O)[C@H](O)[C@H]2O)[C@@H]2C(CO)=CC[C@H]12 [Geniposide]  4.335 SD
2. CC(C(=O)[O-])c1cccc(Oc2ccccc2)c1.CC(C(=O)[O-])c1cccc(Oc2ccccc2)c1.[Ca+2] (stereo not drawn) [Fenoprofen calcium]  3.368 SD
3. CC(C)OC(=O)C(C)(C)Oc1ccc(C(=O)c2ccc(Cl)cc2)cc1 [Fenofibrate (Tricor Trilipix), Fenofibrate]  2.95 SD
4. Cc1cccc([C@H](C)c2cnc[nH]2)c1C [Dexmedetomidine HCl (Precedex), Dexmedetomidine HCl]  2.924 SD
5. CN(Cc1cnc2nc(N)nc(N)c2n1)c1ccc(C(=O)N[C@@H](CCC(=O)O)C(=O)O)cc1 [Methotrexate]  2.424 SD
6. C#CCC(Cc1cnc2nc(N)nc(N)c2n1)c1ccc(C(=O)N[C@@H](CCC(=O)O)C(=O)O)cc1 (stereo partly drawn) [Pralatrexate(Folotyn), Pralatrexate]  2.193 SD
7. O=c1[nH]c(=O)n([C@H]2C[C@H](O)[C@@H](CO)O2)cc1C(F)(F)F [Trifluridine (Viroptic), Trifluridine]  2.117 SD
8. Cc1ncc([N+](=O)[O-])n1CCO [Metronidazole (Flagyl), Metronidazole]  2.092 SD
9. CC(C)C(=O)Nc1ccc([N+](=O)[O-])c(C(F)(F)F)c1 [Flutamide (Eulexin), Flutamide]  2.035 SD
10. NC(=O)NO [Hydroxyurea (Cytodrox), Hydroxyurea]  1.988 SD
11. CC1(C)Cc2c(-c3ccccc3)c(-c3ccc(Cl)cc3)c(CC(=O)O)n2C1 [Licofelone]  1.936 SD
12. CCCCN1CCCCC1C(=O)Nc1c(C)cccc1C (stereo not drawn) [Bupivacaine hydrochloride (Marcain), Bupivacaine hydrochloride]  1.827 SD
13. COc1nccc(-c2c(-c3ccc(F)cc3)ncn2C2CCC(O)CC2)n1 (stereo not drawn) [SB 239063]  1.795 SD
14. COc1cc(C(C)=O)ccc1OCCCN1CCC(c2noc3cc(F)ccc23)CC1 [Iloperidone (Fanapt), Iloperidone]  1.775 SD
15. CCn1cc(C(=O)O)c(=O)c2cc(F)c(N3CCN(C)CC3)cc21 [Pefloxacin mesylate]  1.682 SD
16. CCN(C)C(=O)Oc1cccc([C@H](C)N(C)C)c1 [Rivastigmine tartrate (Exelon), Rivastigmine tartrate]  1.664 SD
17. c1ccc(-c2ccc(C(c3ccccc3)n3ccnc3)cc2)cc1 (stereo not drawn) [Bifonazole]  1.664 SD
18. CCCCC(=O)N(Cc1ccc(-c2ccccc2-c2nnn[nH]2)cc1)[C@H](C(=O)O)C(C)C [Valsartan (Diovan), Valsartan]  1.648 SD
19. CCc1c2c(nc3ccc(OC(=O)N4CCC(N5CCCCC5)CC4)cc13)-c1cc3c(c(=O)n1C2)COC(=O)[C@]3(O)CC.Cl [CPT 11]  1.633 SD
20. O=C(C[S+]([O-])Cc1ccco1)NC/C=C\COc1cc(CN2CCCCC2)ccn1 (stereo not drawn) [Lafutidine]  1.619 SD
21. NC[C@H]1CC[C@H](C(=O)O)CC1 [Tranexamic acid (Transamin), Tranexamic acid]  1.582 SD
22. O=c1[nH]c(=O)n([C@H]2C[C@H](O)[C@@H](CO)O2)cc1F [Floxuridine]  1.58 SD
23. CC1=NN(c2ccccc2)C(=O)C1 [Edaravone (MCI-186), Edaravone]  1.537 SD
24. COc1ccc(C(=O)CC(=O)c2ccc(C(C)(C)C)cc2)cc1 [Avobenzone (Parsol 1789), Avobenzone]  1.502 SD

In order of rising “Average Length SD Away” value:
1. Br.C=CCN1CCc2cc(O)c(O)cc2C(c2ccccc2)C1 (stereo not drawn) [SKF 77434 hydrobromide]  1.527 SD
2. COc1ccc2cccc(N3CCN(CCNC(=O)c4ccc(F)cc4)CC3)c2c1.Cl [S 14506 hydrochloride]  1.54 SD
3. C[C@@H](CN1CCC(n2c(=O)[nH]c3cc(Cl)ccc32)CC1)NC(=O)c1ccc2ccccc2c1 [VU 0155069]  1.618 SD
4. COc1cc(OC)c(C=C2C(O)=Nc3ccccc32)c(OC)c1 [IC 261]  1.651 SD
5. COc1cc2c(cc1OC)C1C(=O)c3c(cc4c(c3O)C=CC(C)(C)O4)OC1CO2 (stereo not drawn) [beta-TOXICAROL]  1.664 SD
6. O=c1[nH]c(=O)n([C@H]2C[C@H](O)[C@@H](CO)O2)cc1F [Floxuridine]  1.672 SD
7. CC[n+]1c(-c2ccccc2)c2cc(N)ccc2c2ccc(N)cc21 [HOMIDIUM BROMIDE]  1.694 SD
8. CCCCC/N=c1\ccn(Cc2ccccc2)c2ccccc12 [CP 339818 hydrochloride]  1.715 SD
9. CC(=O)O[C@H]1C[C@@H](OC(C)=O)C(C)(C)[C@@H]2C[C@@H](OC(C)=O)[C@]3(C)[C@H](CC[C@@]4(C)[C@H](c5ccoc5)OC(=O)[C@H]5O[C@@]534)[C@@]12C [KHIVORIN]  1.723 SD
10. Cl.O=C1NCCc2[nH]c(-c3ccncc3)cc21 [PHA 767491 hydrochloride]  1.724 SD
11. O=c1[nH]c(=O)n([C@H]2C[C@H](O)[C@@H](CO)O2)cc1C(F)(F)F [Trifluridine (Viroptic), Trifluridine]  1.773 SD
12. Cc1nn(-c2ccccc2)c(C)c1/C=N/N1CCN(Cc2ccccc2)CC1 [SANT-1]  1.811 SD
13. CC1(C)C(=O)C=C[C@]2(C)[C@H]3CC[C@@]4(C)[C@H](c5ccoc5)OC(=O)[C@H]5O[C@]54[C@]3(C)C(=O)C[C@@H]12 [DEACETOXY-7-OXOGEDUNIN]  1.843 SD
14. CCc1c2c(nc3ccc(OC(=O)N4CCC(N5CCCCC5)CC4)cc13)-c1cc3c(c(=O)n1C2)COC(=O)[C@]3(O)CC.Cl [CPT 11]  1.894 SD
15. Oc1ccc(OCc2ccccc2)cc1 [MONOBENZONE]  1.914 SD
16. C#CCC(Cc1cnc2nc(N)nc(N)c2n1)c1ccc(C(=O)N[C@@H](CCC(=O)O)C(=O)O)cc1 (stereo partly drawn) [Pralatrexate(Folotyn), Pralatrexate]  2.105 SD
17. CCC(C)n1ncn(-c2ccc(N3CCN(c4ccc(OCC5COC(Cn6cncn6)(c6ccc(Cl)cc6Cl)O5)cc4)CC3)cc2)c1=O (stereo not drawn) [ITRACONAZOLE]  2.154 SD
18. CC(=O)O[C@@H]1C[C@H]2C(C)(C)C(=O)C=C[C@]2(C)[C@H]2CC[C@]3(C)C(=CC(=O)O[C@H]3c3ccoc3)[C@@]21C [DEOXYGEDUNIN]  2.161 SD
19. CCN[C@H]1C[C@H](C)S(=O)(=O)c2sc(S(N)(=O)=O)cc21 [Dorzolamide HCL]  2.205 SD
20. O=C1Nc2ccccc2/C1=C1/Nc2ccccc2/C1=N\O [Indirubin-3′-oxime]  2.475 SD
21. CN1Cc2ccccc2[C@@H]2c3cccc4[nH]cc(c34)C[C@H]21 [CY 208-243]  2.567 SD
22. CN(Cc1cnc2nc(N)nc(N)c2n1)c1ccc(C(=O)N[C@@H](CCC(=O)O)C(=O)O)cc1 [Methotrexate]  3.097 SD
23. C[C@@H]1C[C@@H]([C@H](O)CC2CC(=O)NC(=O)C2)C(=O)[C@@H](C)C1 [CYCLOHEXIMIDE]  3.609 SD
24. COc1nccc(-c2c(-c3ccc(F)cc3)ncn2C2CCC(O)CC2)n1 (stereo not drawn) [SB 239063]  4 SD

same assay, conditions: 10 μM, 16 hours; hit = 1.5 standard deviation above population average, at least 40% viability

With `CN(Cc1cnc2nc(N)nc(N)c2n1)c1ccc(C(=O)N[C@@H](CCC(=O)O)C(=O)O)cc1` [Methotrexate] the “classification as hit increasing cilia length in the screen” value was “listed as hits”.

test system: C57Bl/6 mice; test: Load-induced bone formation: compressive ulnar loading and dynamic histomorphometry; assay type: in vivo; settings: 4αPDD 250 μg/kg s.c. 6 consecutive days, load day 4-6; n=3; preliminary study
Description: All data are shown in reference to the non-loaded contralateral limb as control. […] On day 4-6 the mice were subjected to daily axial compressive ulnar loading. Mice were placed under isoflurane anesthesia and forelimbs were placed between two loading cups controlled by an electromagnetic loading system with feedback control (Bose, ELF 3220). An initial 0.1 N preload was applied, followed by 3 N of cyclic compression applied with a 2 Hz sine wave for 120 cycles, generating a strain gage verified average peak deformation of 1895 μstrain. On day 8, mice were subcutaneously injected with calcein (10 mg/kg) and alizarin red (70 mg/kg) on day 12. Mice were euthanized on day 18 and prepared for dynamic histomorphometric analysis.
Compressive ulnar loading was applied on days 5-7 to mechanically stimulate bone (3N at 2 Hz for 120 cycles) [9].
On the final three days of drug or control injection, animals were also subjected to compressive ulnar load at a peak load of 3 N using a 2 Hz sine wave for 120 cycles, as previously described (Temiyasathit, S. et al. PLoS One 7, (2012); Lee, K. L. et al. FASEB J. 28, 1157-1165 (2014)). Contralateral limbs served as a non-loaded control. 2 days following load, mice were treated with 10 mg/kg calcein (Sigma), and 4 days later 70 mg/kg alizarin (Sigma), with mice being sacrificed 6 days later.
Dynamic histomorphometry was performed as previously described, measuring the amount and separation of calcein and alizarin labels to quantify mineralizing surface (rMS/BS), mineral apposition rate (rMAR), and bone formation rate (rBFR/BS) relative to non-loaded controls (Temiyasathit, S. et al. PLoS One 7, (2012); Lee, K. L. et al. FASEB J. 28, 1157-1165 (2014)). Left and right ulnae were dissected and preserved in ethanol. Samples were then infiltrated with methyl methacrylate, and embedded in methyl methacrylate and benzoyl peroxide. Transverse sections of the ulnar midshaft were imaged on a laser scanning confocal microscope (Olympus Fluoview FV1000). Measurements of outer bone perimeter (OP), single label perimeter (SL), double label perimeter (DL), and double label area (DA) were made in ImageJ. The mineralizing surface relative to outer bone surface (MS/BS), mineral apposition rate (MAR), and bone formation rate (BFS/BS) were calculated as:
Relative measurements—rMS/BS, rMAR, rBFR/BS—were determined by subtracting non-loaded from loaded ulnae to display differences due to mechanical load.

In the case of `CCCCCCCCCC(=O)O[C@@H]1[C@@H](C)[C@@]2(O)[C@@H](C=C(CO)C[C@@]3(O)C(=O)C(C)=C[C@@H]23)[C@@H]2C(C)(C)[C@]12OC(=O)CCCCCCCCC` [4αPDD], the “relative bone formation rate (rBFR/BS) compared to vehicle control” value is reported as “did not promote a significant increase”.
